{"source": "ChEMBL document CHEMBL1201862", "about": "“PubChem BioAssay data set” (2004)", "key": {"[1]": {"assay": "M. tuberculosis H37Rv growth inhibitors, H37Rv strain (AID 1626)", "type": "functional"}, "[2]": {"assay": "growth suppression of PTEN-null colon cells, dose response, cell-based, HCT116 PTEN knockout (AID 1047);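 further: HCT116 colon tumor cells with PTEN knocked out; cells exposed to compound for 60 hours before readout; potency for loss of cell viability measured by luminescence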", "type": "functional"}, "[3]": {"assay": "C. albicans growth with fluconazole, confirmation, fluorescence, retest (AID 2467)", "type": "functional, cell-based"}, "[4]": {"target": "T1, Serine/threonine-protein phosphatase (Candida dubliniensis (strain CD36 / CBS 7987 / NCPF 3949 / NRRLY-17841) (Yeast), UniProt B9W6M3)", "T1 sequence (B9W6M3 whole entry)": "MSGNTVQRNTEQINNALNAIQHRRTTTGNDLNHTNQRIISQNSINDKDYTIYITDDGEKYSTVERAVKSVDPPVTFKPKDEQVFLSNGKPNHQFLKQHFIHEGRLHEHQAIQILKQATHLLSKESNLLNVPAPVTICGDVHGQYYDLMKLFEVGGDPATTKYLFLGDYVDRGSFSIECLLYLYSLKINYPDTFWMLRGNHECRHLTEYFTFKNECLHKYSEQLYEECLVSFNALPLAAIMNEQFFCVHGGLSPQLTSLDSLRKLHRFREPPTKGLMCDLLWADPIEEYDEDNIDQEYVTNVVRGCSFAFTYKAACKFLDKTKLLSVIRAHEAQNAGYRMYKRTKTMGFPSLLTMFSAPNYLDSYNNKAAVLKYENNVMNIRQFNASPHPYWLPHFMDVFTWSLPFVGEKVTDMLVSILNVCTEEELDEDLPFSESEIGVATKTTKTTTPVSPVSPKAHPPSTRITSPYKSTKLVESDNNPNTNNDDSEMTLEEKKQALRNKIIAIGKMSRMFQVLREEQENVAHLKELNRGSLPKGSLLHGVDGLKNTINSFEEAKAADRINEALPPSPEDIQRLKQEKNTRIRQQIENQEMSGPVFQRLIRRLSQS", "assay": "calcineurin pathway inhibitors in yeast reporter, dose response, S. cerevisiae, CDRE-lacZ, luminescence, secondary (AID 2388);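 further: yeast reporter cells carrying a calcineurin-responsive lacZ construct stimulated with calcium chloride; luminescent beta-galactosidase reporter signal in whole cells rather than isolated phosphatase activity; potency for inhibition where a drop in reporter signal means calcineurin blockade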", "type": "functional, cell-based"}, "[5]": {"target": "T2, RNA-binding protein pos-1 (Caenorhabditis elegans, UniProt G5EF15)", "T2 sequence (G5EF15 whole entry)": "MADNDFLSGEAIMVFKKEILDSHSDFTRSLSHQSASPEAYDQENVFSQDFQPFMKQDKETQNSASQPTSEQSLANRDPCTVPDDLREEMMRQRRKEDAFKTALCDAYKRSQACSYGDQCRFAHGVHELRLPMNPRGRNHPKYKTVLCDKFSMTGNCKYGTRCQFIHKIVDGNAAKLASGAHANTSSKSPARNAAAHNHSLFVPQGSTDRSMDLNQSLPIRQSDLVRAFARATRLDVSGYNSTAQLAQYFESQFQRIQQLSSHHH", "assay": "inhibitors of POS-1/mex-3 RNA binding, dose response, biochemical, fluorescence polarization (AID 1964);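 further: purified POS-1 fused to maltose binding protein made in E. coli; potency of compounds blocking POS-1 binding to fluorescent RNA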"}, "[6]": {"target": "Protein-tyrosine kinase 2-beta (Homo sapiens, UniProt Q14289)", "sequence (Q14289 whole entry)": "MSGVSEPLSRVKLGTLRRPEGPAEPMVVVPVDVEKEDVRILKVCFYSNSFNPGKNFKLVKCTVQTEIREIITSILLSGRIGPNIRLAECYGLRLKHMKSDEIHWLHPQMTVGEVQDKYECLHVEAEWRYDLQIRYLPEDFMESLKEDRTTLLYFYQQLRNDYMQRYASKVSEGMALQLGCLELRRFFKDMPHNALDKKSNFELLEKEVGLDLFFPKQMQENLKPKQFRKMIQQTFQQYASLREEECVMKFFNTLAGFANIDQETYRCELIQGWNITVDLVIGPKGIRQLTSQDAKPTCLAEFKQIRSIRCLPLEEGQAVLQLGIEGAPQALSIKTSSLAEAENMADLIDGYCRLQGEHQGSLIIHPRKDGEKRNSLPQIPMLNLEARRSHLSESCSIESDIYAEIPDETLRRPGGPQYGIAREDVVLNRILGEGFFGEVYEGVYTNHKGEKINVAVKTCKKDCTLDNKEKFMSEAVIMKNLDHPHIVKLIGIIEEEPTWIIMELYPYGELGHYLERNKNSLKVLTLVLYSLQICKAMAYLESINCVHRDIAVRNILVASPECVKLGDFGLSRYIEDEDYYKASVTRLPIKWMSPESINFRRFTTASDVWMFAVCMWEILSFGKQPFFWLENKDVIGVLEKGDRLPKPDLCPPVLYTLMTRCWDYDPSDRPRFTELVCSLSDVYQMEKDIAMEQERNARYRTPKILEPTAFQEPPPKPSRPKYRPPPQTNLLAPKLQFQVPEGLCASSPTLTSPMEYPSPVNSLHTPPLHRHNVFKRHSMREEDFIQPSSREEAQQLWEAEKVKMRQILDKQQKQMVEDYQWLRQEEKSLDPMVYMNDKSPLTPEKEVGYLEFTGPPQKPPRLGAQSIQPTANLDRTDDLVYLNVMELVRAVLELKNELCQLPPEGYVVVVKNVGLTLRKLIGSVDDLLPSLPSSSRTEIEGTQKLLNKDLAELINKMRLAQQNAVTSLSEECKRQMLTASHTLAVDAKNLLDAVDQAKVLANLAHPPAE"}, "Prothrombin": {"target": "Prothrombin (Bos taurus, UniProt P00735)", "assay": "thrombin inhibition, dose response, biochemical, fluorescence polarization, uHTS hits (AID 602369)", "type": "functional"}, "[7]": {"target": "ATP-dependent molecular chaperone HSP82 (Candida albicans (strain WO-1) (Yeast), UniProt C4YTQ8)", "sequence (C4YTQ8 whole entry)": "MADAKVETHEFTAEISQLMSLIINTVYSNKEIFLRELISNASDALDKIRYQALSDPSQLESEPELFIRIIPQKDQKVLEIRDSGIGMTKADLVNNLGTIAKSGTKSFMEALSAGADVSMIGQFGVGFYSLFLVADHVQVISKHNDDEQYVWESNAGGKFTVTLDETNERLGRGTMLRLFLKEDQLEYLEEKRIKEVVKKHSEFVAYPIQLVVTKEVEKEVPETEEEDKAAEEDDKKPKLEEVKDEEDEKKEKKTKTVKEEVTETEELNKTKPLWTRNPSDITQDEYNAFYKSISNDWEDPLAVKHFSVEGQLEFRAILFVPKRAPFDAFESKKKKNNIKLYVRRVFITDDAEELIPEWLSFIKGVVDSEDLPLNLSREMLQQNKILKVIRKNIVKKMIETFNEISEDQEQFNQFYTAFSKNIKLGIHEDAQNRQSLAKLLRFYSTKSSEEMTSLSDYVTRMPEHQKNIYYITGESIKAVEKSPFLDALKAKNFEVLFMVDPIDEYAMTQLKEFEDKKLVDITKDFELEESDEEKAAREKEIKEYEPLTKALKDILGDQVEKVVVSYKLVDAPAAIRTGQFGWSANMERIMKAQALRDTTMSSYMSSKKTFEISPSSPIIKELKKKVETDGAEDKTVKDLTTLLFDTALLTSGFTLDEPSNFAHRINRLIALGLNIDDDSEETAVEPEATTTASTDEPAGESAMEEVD", "assay": "loss of DOC-induced GRE-beta-galactosidase reporter signal, dose response, Hsp90 inhibitor project, S. cerevisiae, luminescence (AID 2400);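 further: beta-galactosidase luminescence from glucocorticoid response element reporter as proxy for Hsp90 function; inhibitor potency where signal loss means Hsp90 inhibition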", "type": "functional, cell-based"}, "[8]": {"target": "26S proteasome non-ATPase regulatory subunit 14 (Homo sapiens, UniProt O00487)", "sequence (O00487 whole entry)": "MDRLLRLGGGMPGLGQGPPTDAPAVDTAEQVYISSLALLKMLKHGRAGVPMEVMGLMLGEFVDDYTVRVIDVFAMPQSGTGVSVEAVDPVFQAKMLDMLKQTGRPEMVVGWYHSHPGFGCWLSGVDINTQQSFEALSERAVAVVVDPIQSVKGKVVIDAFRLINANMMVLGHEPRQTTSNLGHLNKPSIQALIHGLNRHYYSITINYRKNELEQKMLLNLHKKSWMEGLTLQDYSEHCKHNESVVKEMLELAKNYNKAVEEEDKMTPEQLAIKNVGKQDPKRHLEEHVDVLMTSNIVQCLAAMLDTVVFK", "assay": "inhibition of proteasome subunit RPN11 – biochemical, fluorescence polarization, uHTS hits, confirmation (AID 602368)", "type": "functional"}, "[9]": {"assay": "NIH-3T3 fibroblast cytotoxicity, dose response, cytotoxicity control, cell-based, fluorescence, Alamar Blue, secondary assay (AID 2327);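 further: NIH-3T3 mouse fibroblasts cultured with fluconazole at 8 µg/mL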", "type": "functional"}, "[10]": {"assay": "growth suppression of beta-catenin-knockout colon cells, dose response, cell-based, HCT116, human colon tumor (AID 1045);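 further: HCT116 colon tumor cells with beta catenin knocked out; cells exposed to compound for 60 hours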", "type": "functional"}, "[11]": {"target": "72 kDa type IV collagenase (Homo sapiens, UniProt P08253)", "sequence (P08253 whole entry)": "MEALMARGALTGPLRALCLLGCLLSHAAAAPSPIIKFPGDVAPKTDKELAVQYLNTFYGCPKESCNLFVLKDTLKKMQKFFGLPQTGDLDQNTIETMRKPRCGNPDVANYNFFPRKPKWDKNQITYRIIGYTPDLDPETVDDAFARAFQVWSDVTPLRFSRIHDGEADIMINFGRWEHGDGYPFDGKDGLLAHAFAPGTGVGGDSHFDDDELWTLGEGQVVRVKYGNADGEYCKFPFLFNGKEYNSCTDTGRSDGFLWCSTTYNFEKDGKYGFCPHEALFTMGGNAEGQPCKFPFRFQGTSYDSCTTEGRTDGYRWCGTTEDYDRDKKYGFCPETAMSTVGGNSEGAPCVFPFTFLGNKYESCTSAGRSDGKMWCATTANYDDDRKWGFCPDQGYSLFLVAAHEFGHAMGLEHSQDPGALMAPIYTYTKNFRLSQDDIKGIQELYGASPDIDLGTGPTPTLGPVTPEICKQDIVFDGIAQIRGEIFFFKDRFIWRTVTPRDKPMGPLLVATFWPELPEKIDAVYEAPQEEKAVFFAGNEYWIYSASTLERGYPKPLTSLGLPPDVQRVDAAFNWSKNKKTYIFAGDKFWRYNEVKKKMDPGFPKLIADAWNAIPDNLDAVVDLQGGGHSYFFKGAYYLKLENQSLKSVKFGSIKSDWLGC", "assay": "Dose Response validation of uHTS RPN11 inhibitor hits using a MMP-2 Fluorescence assay.", "type": "functional"}, "[12]": {"target": "T3, Zinc finger protein mex-5 (Caenorhabditis elegans, UniProt Q9XUB2)", "T3 sequence (Q9XUB2 whole entry)": "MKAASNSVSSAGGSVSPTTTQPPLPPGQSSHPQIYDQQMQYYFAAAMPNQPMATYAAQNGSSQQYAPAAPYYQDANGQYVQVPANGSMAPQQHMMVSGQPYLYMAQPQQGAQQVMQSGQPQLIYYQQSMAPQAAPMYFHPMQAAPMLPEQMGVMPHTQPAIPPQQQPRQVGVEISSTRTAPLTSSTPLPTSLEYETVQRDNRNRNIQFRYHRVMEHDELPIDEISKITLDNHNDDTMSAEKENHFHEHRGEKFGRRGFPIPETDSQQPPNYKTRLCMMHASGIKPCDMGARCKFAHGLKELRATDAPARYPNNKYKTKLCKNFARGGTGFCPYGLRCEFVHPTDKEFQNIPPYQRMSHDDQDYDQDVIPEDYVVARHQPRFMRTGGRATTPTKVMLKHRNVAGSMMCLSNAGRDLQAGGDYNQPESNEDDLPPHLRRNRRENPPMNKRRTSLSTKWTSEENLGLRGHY", "assay": "MEX-5/TCR-2 RNA interaction inhibitors, dose response, biochemical, C. elegans, fluorescence polarization (AID 1960)"}, "Estrogen receptor": {"target": "T4, Estrogen receptor (Homo sapiens, UniProt P03372)", "T4 sequence (P03372 whole entry)": "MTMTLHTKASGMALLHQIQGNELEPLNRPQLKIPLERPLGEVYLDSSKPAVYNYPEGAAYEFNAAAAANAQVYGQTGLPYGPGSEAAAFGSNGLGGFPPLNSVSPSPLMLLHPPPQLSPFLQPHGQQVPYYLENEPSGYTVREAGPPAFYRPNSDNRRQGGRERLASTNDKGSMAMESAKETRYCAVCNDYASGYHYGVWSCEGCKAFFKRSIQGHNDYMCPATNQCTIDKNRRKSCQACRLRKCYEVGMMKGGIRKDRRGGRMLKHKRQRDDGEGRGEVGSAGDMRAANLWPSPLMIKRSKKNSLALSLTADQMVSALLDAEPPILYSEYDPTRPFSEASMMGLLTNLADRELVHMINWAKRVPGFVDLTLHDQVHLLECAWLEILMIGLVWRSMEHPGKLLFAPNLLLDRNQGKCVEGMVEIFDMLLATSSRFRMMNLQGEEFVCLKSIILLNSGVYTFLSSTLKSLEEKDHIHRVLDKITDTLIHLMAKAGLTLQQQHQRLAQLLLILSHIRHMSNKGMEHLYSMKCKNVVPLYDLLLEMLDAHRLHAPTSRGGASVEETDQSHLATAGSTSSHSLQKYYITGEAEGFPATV", "assay": "ERα–SRC-3 coactivator interaction inhibitors, confirmation, orthogonal assay, biochemical, ELISA, streptavidin-HRP readout (AID 1079)"}, "Estrogen receptor beta": {"target": "Estrogen receptor beta (Homo sapiens, UniProt Q92731)", "sequence (Q92731 whole entry)": "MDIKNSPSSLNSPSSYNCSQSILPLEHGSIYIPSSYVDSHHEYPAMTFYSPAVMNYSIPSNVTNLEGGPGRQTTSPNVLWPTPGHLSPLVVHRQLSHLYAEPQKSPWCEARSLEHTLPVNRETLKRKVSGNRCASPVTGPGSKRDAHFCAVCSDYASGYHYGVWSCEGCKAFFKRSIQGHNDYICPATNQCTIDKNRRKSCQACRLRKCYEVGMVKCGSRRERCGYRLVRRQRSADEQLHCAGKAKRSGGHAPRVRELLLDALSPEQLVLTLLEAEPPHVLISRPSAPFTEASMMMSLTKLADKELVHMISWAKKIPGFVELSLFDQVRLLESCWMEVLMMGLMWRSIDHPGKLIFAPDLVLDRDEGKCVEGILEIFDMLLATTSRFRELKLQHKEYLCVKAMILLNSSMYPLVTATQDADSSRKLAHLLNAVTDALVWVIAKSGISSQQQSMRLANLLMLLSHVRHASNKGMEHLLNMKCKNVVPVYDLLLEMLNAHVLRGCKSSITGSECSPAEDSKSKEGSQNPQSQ", "assay": "ERβ–SRC-3 coactivator interaction inhibitors, confirmation, orthogonal assay, biochemical, ELISA, streptavidin-HRP readout (AID 1060)"}, "[13]": {"assay": "inhibitors of intracellular T. cruzi replication, confirmation, NIH3T3 host cells, beta-gal luminescence (AID 2044);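 further: luminescent beta-galactosidase reporter signal from transgenic T. cruzi replicating inside host cells; inhibitors lower the luminescence signal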", "type": "functional, cell-based"}, "[14]": {"assay": "THP-1 cell cytotoxicity, dose response, cytotoxicity control for Vif-APOBEC3G degradation inhibitor project, THP-1 cells (AID 1117359)", "type": "functional", "conditions": "Human immunodeficiency virus 1, THP-1"}, "[15]": {"target": "T5, Neuropeptide Y receptor type 2 (Homo sapiens, UniProt P49146)", "T5 sequence (P49146 whole entry)": "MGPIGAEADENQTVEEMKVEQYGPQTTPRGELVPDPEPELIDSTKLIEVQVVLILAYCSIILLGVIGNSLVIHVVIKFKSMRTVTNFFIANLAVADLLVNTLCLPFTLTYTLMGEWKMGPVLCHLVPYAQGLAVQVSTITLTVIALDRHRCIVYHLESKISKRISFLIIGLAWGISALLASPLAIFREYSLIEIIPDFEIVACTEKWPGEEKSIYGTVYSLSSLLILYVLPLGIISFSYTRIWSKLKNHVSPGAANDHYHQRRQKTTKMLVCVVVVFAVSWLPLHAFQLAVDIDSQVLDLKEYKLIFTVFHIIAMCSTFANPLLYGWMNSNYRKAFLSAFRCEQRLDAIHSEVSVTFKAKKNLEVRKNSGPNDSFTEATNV", "assay": "Fluorescence-based cell-based high-throughput dose response assay for agonists of NPY-Y2. [Related pubchem assays: 1703 (Screening assay (CNGC inhibitors).), 1359 (Screening assay (NPY-Y2 potentiators or agonists).), 1304 (Screening assay (NPY-Y1 potentiators or agonists).), 1710 (Screening assay (NPY-Y2 agonists).), 1791 (Summary AID.)]", "type": "functional"}, "[16]": {"assay": "inhibitors of Vif binding to APOBEC3G peptide, primary screen, biochemical, TR-FRET, GST-Vif 1-94, biotin-A3G peptide, dose response retest (AID 1117319);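 further: inhibitors lower the FRET signal by blocking Vif and A3G binding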", "type": "functional"}, "[17]": {"target": "T6, Neuropeptide Y receptor type 1 (Homo sapiens, UniProt P25929)", "T6 sequence (P25929 whole entry)": "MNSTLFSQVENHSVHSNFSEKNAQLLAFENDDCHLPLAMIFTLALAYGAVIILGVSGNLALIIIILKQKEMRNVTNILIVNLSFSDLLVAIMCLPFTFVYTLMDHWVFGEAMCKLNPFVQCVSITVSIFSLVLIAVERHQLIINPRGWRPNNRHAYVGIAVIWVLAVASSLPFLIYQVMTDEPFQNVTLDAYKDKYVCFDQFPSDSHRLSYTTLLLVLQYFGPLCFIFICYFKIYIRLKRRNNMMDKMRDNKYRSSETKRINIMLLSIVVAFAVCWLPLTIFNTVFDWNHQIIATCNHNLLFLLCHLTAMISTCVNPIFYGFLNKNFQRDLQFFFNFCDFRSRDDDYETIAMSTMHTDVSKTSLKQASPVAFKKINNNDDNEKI", "assay": "Fluorescence-based counterscreen for agonists of NPY-Y2: cell-based high-throughput dose response assay for agonists of NPY-Y1.", "type": "functional"}, "HEK293": {"tested_on": "HEK293", "assay": "Fluorescence-based counterscreen for potentiators or agonists of NPY-Y2: cell-based high-throughput dose response assay to identify inhibitors of cyclic nucleotide gated ion channel (CNGC) activity. In this assay, the parental HEK293 cell line transfected with a cyclic-nucleotide gated ion channel (CNGC)-based cAMP sensor is used to measure inhibition of isoproterenol-induced CNGC activity by test compound.", "type": "functional", "conditions": "Homo sapiens"}, "[18]": {"assay": "cytotoxicity toward NIH3T3 fibroblasts, dose response, counter-screen, cell-based, ATP luminescence, mouse fibroblasts (AID 2010);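 further: cells exposed to compound for about 90 hours before reading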", "type": "functional"}, "Bcl-2-like protein 10": {"target": "Bcl-2-like protein 10 (Homo sapiens, UniProt Q9HD36)", "sequence (Q9HD36 whole entry)": "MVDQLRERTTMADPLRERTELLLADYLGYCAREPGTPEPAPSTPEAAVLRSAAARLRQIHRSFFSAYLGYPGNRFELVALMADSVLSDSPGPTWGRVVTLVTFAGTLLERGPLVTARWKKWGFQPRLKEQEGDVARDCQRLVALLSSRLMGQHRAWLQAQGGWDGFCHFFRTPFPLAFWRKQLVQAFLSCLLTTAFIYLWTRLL", "assay": "Biochemical TR3 FP assay of Bcl-B inhibitor potency, EC50 (AID 1243)", "type": "functional"}}, "note": "The source made the active and inactive calls."}
{"smiles": "CCOC(=O)c1ccc(NC(=O)c2nnc(O)c3ccccc23)cc1", "values": [{"measurement": "IC50", "setting": "[1]", "result": "> 100 µM (active)"}]}
{"smiles": "COC(=O)c1ccc(COc2ccc(/C=C(\\C#N)c3nc4ccccc4[nH]3)cc2OC)o1", "values": [{"measurement": "EC50", "setting": "[2]", "result": "79.7 µM (active)"}, {"measurement": "EC50", "setting": "[3]", "result": "3.83 µM (active)"}, {"measurement": "EC50", "setting": "[4]", "result": "> 180 µM (inactive)"}, {"measurement": "EC50", "setting": "[5]", "result": "> 300 µM (not active)"}, {"measurement": "IC50", "setting": "[6]", "result": "> 69.5 µM (not active)"}, {"measurement": "IC50", "setting": "Prothrombin", "result": "11.4 µM (active)"}, {"measurement": "EC50", "setting": "[7]", "result": "> 160 µM (inactive)"}, {"measurement": "IC50", "setting": "[8]", "result": "4.93 µM (active)"}, {"measurement": "EC50", "setting": "[9]", "result": "> 160 µM (inconclusive)"}, {"measurement": "EC50", "setting": "[10]", "result": "88.4 µM (active)"}, {"measurement": "IC50", "setting": "[11]", "result": "> 100 µM (inactive)"}, {"measurement": "EC50", "setting": "[12]", "result": "> 300 µM (not active)"}]}
{"smiles": "N#Cc1ccccc1N1CCN(C(=O)CCCCCn2c(=S)[nH]c3ccccc3c2=O)CC1", "values": [{"measurement": "IC50", "setting": "Estrogen receptor", "result": "0.09 µM (not active)"}, {"measurement": "IC50", "setting": "Estrogen receptor beta", "result": "0.957 µM (not active)"}]}
{"smiles": "COc1ccc(NC(=O)c2c(OC)cccc2OC)c(OC)c1", "values": [{"measurement": "EC50", "setting": "[13]", "result": "3.06 µM (active)"}, {"measurement": "CC50", "setting": "[14]", "result": "> 40 µM (active)"}, {"measurement": "EC50", "setting": "[15]", "result": "> 35.4 µM (not active)"}, {"measurement": "IC50", "setting": "[16]", "result": "> 60.5 µM (active)"}, {"measurement": "EC50", "setting": "[17]", "result": "> 35.4 µM (not active)"}, {"measurement": "EC50", "setting": "HEK293", "result": "> 35.4 µM (not active)"}, {"measurement": "EC50", "setting": "[18]", "result": "> 60 µM (not active)"}]}
{"smiles": "Cc1ccc(C)n1-c1cc(C(=O)O)cc(C(=O)O)c1", "values": [{"measurement": "EC50", "setting": "Bcl-2-like protein 10", "result": "0.54 µM (active)"}]}
